# “And” between values parts separate entries of the source, which are not always exact repeats. Equal entries are not always repeated. Structures can show the parent of a compound that is named as a salt.
# Biological target: T1, Full length human TNNI3K (hTNNI3K) (Homo sapiens, UniProt Q59H18)
# T1 construct: His-MBP-TEV-Full length human TNNI3K (hTNNI3K); His (N); MBP (N); TEV cleavage site (N); made in house; host or cells: baculovirus system (printed 'Baculokinase system')
# T1 sequence (Q59H18 1-835): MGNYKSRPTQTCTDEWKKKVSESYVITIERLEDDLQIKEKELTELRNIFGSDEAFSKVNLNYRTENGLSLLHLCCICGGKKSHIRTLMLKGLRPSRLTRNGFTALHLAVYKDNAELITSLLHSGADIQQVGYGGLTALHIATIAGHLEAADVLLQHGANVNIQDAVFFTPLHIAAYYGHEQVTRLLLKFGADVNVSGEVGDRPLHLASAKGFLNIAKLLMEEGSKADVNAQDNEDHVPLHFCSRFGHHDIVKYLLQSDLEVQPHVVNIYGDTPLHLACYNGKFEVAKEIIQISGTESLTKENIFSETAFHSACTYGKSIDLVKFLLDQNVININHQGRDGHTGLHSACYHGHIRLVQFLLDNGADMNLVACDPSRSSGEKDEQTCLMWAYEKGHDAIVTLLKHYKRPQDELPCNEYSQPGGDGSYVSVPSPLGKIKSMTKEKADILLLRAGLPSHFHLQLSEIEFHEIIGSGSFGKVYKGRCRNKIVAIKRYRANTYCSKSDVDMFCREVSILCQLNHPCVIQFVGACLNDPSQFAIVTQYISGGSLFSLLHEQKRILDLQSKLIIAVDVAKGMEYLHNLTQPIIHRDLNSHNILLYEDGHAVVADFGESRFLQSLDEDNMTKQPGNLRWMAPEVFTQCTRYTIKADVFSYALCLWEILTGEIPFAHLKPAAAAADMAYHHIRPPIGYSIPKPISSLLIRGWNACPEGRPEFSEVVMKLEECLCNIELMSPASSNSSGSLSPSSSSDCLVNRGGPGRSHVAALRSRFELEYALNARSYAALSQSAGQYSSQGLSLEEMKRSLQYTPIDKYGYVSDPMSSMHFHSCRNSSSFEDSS
# Test: Fluorescent polarization assay of compound inhibition on hTNNI3K ATP binding (Biological Assay Method I)
# Conditions: displacement of fluorescent ligand from hTNNI3K ATP binding pocket; mean of a minimum of 2 experiments; read-out: pXC50 (the source's name) (converted)
# Excerpt: Materials: His-MBP-TEV-Full length human TNNI3K (hTNNI3K) was expressed in Baculokinase system and purified from amylase affinity column followed by Superdex200. The fluorescent ligand 5-({[2-({[3-({4-[(5-hydroxy-2-methylphenyl)amino]-2-pyrimidinyl}amino)phenyl]carbonyl}amino)ethyl]amino}carbonyl)-2-(6-hydroxy-3-oxo-3H-xanthen-9-yl)benzoic acid was used. The preparation of this fluorescent ligand is disclosed in U.S. Provisional Patent Application No. 61/237,815 filed Aug. 28, 2009, the disclosure of which is incorporated by reference herein. The other buffer components, including MgCl2 (Catalog Number M1028), Bis-Tris (Catalog Number B7535), DTT (Catalog Number D9779) and Chaps (Catalog Number C3023) were purchased from Sigma-Aldrich.
# Biological Assay Method I:
# A fluorescent polarization assay was used to determine does response of compound inhibition on hTNNI3K ATP binding.
# Solution 1: Ten (10) mL of a 5 nM 5-({[2-({[3-({4-[(5-hydroxy-2-methylphenyl)amino]-2-pyrimidinyl}amino)phenyl]carbonyl}amino)ethyl]amino}carbonyl)-2-(6-hydroxy-3-oxo-3H-xanthen-9-yl)benzoic acid solution (Solution 1) was prepared by mixing 5 μL of 1M DTT and 80 μL of 10% (w/v) Chaps and 5 μL of a 10 μM 5-({[2-({[3-({4-[(5-hydroxy-2-methylphenyl)amino]-2-pyrimidinyl}amino)phenyl]carbonyl}amino) ethyl]amino}carbonyl)-2-(6-hydroxy-3-oxo-3H-xanthen-9-yl)benzoic acid stock solution into 9910 μL buffer (20 mM Tris, 15 mM MgCl2, pH 7.5). (Stock solution: 10 μM solution of 5-({[2-({[3-({4-[(5-hydroxy-2-methylphenyl)amino]-2-pyrimidinyl}amino)phenyl]carbonyl}amino)ethyl]amino}carbonyl)-2-(6-hydroxy-3-oxo-3H-xanthen-9-yl)benzoic acid in 100% DMSO)
# Solution 2 was formed by mixing 53.8 μL of 2.6 μM hTNNI3K with a 6946.2 μL aliquot of Solution 1 (the above 5-({[2-({[3-({4-[(5-hydroxy-2-methylphenyl)amino]-2-pyrimidinyl}amino)phenyl]carbonyl}amino)ethyl]amino}carbonyl)-2-(6-hydroxy-3-oxo-3H-xanthen-9-yl)benzoic acid solution) to make up a 7 mL of mixture of hTNNI3K and 5-({[2-({[3-({4-[(5-hydroxy-2-methylphenyl)amino]-2-pyrimidinyl}amino)phenyl]carbonyl}amino)ethyl]amino}carbonyl)-2-(6-hydroxy-3-oxo-3H-xanthen-9-yl)benzoic acid (Solution 2).
# Fifty (50) nL of inhibitors in DMSO (or DMSO controls) were stamped into a 384-well low volume Greiner black plate, followed by addition of 5 μL of Solution 1 to column 18 and 5 μL Solution 2 to columns 1-17 and 19-24 of the plate. The plate was then spun at 500 rpm for 30 seconds and incubated at room temperature for 60 minutes. After that, the fluorescent polarization was measured on Analyst (ex/em: 485/530 nm, Dichroic: 505). For dose response experiments, normalized data were fit by ABASE/XC50 and pXC50=(log((b−y)/(y−a)))/d−log(x), where x is the compound concentration and y is the % activity at specified compound concentration, a is the minimum % activity, b is the maximum % activity, and d is the Hill slope.
# The pXC50s are averaged to determine a mean value, for a minimum of 2 experiments.
row,IC50,Compound
1,10 to 100 nM,"CNS(=O)(=O)c1ccc(OC(C)C(F)(F)F)c(Nc2ncnc3cc(OC)c(OC)cc23)c1 (stereo not shown) [Example 69, 3-{[6,7-bis(methyloxy)-4-quinazolinyl]amino}-N-methyl-4-[(2,2,2-trifluoro-1-methylethyl)oxy] benzenesulfonamide]"
2,10 to 100 nM,"CNS(=O)(=O)c1ccc(OCC(F)(F)F)c(Nc2ncnc3cc(OCCCN4CCOCC4)ccc23)c1 [Example 74, N-methyl-3-[(7-{[3-(4-morpholinyl)propyl]oxy}-4-quinazolinyl)amino]-4-[(2,2,2-trifluoroethyl)oxy] benzenesulfonamide trifluoroacetate]"
3,10 to 100 nM,"CNS(=O)(=O)c1ccc(OCC(F)(F)F)c(Nc2ncnc3cc(OC)c(OC(C)C)cc23)c1 [Example 44, N-methyl-3-{[6-[(1-methylethyl)oxy]-7-(methyloxy)-4-quinazolinyl]amino}-4-[(2,2,2-trifluoroethyl)oxy] benzenesulfonamide hydrochloride]"
4,10 to 100 nM,"CNS(=O)(=O)c1ccc(SC)c(Nc2ncnc3cc(OCCOC)c(OCCOC)cc23)c1 [Example 20, 3-[(6,7-bis{[2-(methyloxy)ethyl]oxy}-4-quinazolinyl)amino]-N-methyl-4-(methylthio) benzenesulfonamide]"
5,10 to 100 nM,"CNS(=O)(=O)c1ccc(N(C)CC(F)(F)F)c(Nc2ncnc3cc(OC)cc(OC)c23)c1 [Example 36, 3-{[5,7-bis(methyloxy)-4-quinazolinyl]amino}-N-methyl-4-[methyl(2,2,2-trifluoroethyl)amino] benzenesulfonamide hydrochloride]"
6,10 to 100 nM,"CNS(=O)(=O)c1ccc(OCC(F)(F)F)c(Nc2ncnc3cc(OCCCOC)ccc23)c1 [Example 75, N-methyl-3-[(7-{[3-(methyloxy)propyl]oxy}-4-quinazolinyl)amino]-4-[(2,2,2-trifluoroethyl)oxy]benzenesulfonamide]"
7,1 to 10 nM,"CNS(=O)(=O)c1ccc(N(C)C)c(Nc2ncnc3cc(OCCCOC)ccc23)c1 [Example 76, 4-(dimethylamino)-N-methyl-3-[(7-{[3-(methyloxy)propyl]oxy}-4-quinazolinyl)amino] benzenesulfonamide]"
8,10 to 100 nM,"CNS(=O)(=O)c1ccc(F)c(Nc2ncnc3cc(OC)cc(OC)c23)c1 [Example 38, 3-{[5,7-bis(methyloxy)-4-quinazolinyl]amino}-4-fluoro-N-methylbenzenesulfonamide hydrochloride]"
9,10 to 100 nM,"CNS(=O)(=O)c1ccc(N(C)C)c(Nc2ncnc3ccc(OC)cc23)c1 [Example 10, 4-(dimethylamino)-N-methyl-3-{[6-(methyloxy)-4-quinazolinyl]amino}benzene sulfonamide trifluoroacetate]"
10,10 to 100 nM,"CCOc1cc2c(Nc3cc(S(=O)(=O)NC)ccc3OCC(F)(F)F)ncnc2cc1OC [Example 42, 3-{[6-(ethyloxy)-7-(methyloxy)-4-quinazolinyl]amino}-N-methyl-4-[(2,2,2-trifluoroethyl)oxy] benzenesulfonamide hydrochloride]"
11,1 to 10 nM,"CCOc1cc(OC)cc2ncnc(Nc3cc(S(=O)(=O)NC)ccc3OCC(F)(F)F)c12 [Example 46, 3-{[5-(ethyloxy)-7-(methyloxy)-4-quinazolinyl]amino}-N-methyl-4-[(2,2,2-trifluoroethyl)oxy] benzenesulfonamide]"
12,10 to 100 nM,"CNS(=O)(=O)c1ccc(N(C)C)c(Nc2ncnc3cc(OCCCCl)ccc23)c1 [Example 16, 3-({7-[(3-chloropropyl)oxy]-4-quinazolinyl}amino)-4-(dimethylamino)-N-methylbenzenesulfonamide]"
13,10 to 100 nM,"CNS(=O)(=O)c1ccc(OCC(F)(F)F)c(Nc2ncnc3cc(OC)cc(OC(C)C)c23)c1 [Example 47, N-methyl-3-{[5-[(1-methylethyl)oxy]-7-(methyloxy)-4-quinazolinyl]amino}-4-[(2,2,2-trifluoroethyl)oxy] benzenesulfonamide]"
14,10 to 100 nM,"CNS(=O)(=O)c1ccc(OC(F)(F)F)c(Nc2ncnc3cc(OC)cc(OC(C)C)c23)c1 [Example 65, N-methyl-3-{[5-[(1-methylethyl)oxy]-7-(methyloxy)-4-quinazolinyl]amino}-4-[(trifluoromethyl)oxy] benzenesulfonamide]"
15,10 to 100 nM,"CCOc1cc(OC)cc2ncnc(Nc3cc(S(=O)(=O)NC)ccc3OC(F)(F)F)c12 [Example 64, 3-{[5-(ethyloxy)-7-(methyloxy)-4-quinazolinyl]amino}-N-methyl-4-[(trifluoromethyl)oxy] benzenesulfonamide]"
16,10 to 100 nM,"CCN(C)c1ccc(S(=O)(=O)NC)cc1Nc1ncnc2cc(OC)c(OC)cc12 [Example 4, 3-{[6,7-bis(methyloxy)-4-quinazolinyl]amino}-4-[ethyl(methyl)amino]-N-methylbenzenesulfonamide]"
17,10 to 100 nM,"CNS(=O)(=O)c1ccc(Cl)c(Nc2ncnc3cc(OC)c(OC)c(OC)c23)c1 [Example 59, 4-chloro-N-methyl-3-{[5,6,7-tris(methyloxy)-4-quinazolinyl]amino}benzene sulfonamide trifluoroacetate]"
18,10 to 100 nM and ~79.4 nM,"CNS(=O)(=O)c1ccc(N2CCOCC2)c(Nc2ncnc3cc(OC)c(OC)cc23)c1 [Example 3, 3-{[6,7-bis(methyloxy)-4-quinazolinyl]amino}-N-methyl-4-(4-morpholinyl)benzenesulfonamide trifluoroacetate]"
19,1 to 10 nM,"CNS(=O)(=O)c1ccc(N(C)CC(F)(F)F)c(Nc2ncnc3cc(OC)c(OC)cc23)c1 [Example 35, 3-{[6,7-bis(methyloxy)-4-quinazolinyl]amino}-N-methyl-4-[methyl(2,2,2-trifluoroethyl)amino] benzenesulfonamide trifluoroacetate]"
20,1 to 10 nM,"CNS(=O)(=O)c1ccc(OCC(F)(F)F)c(Nc2ncnc3cc(OC)c(OC)c(OC)c23)c1 [Example 48, N-methyl-4-[(2,2,2-trifluoroethyl)oxy]-3-{[5,6,7-tris(methyloxy)-4-quinazolinyl]amino}benzene sulfonamide hydrochloride]"
21,10 to 100 nM,"CNS(=O)(=O)c1ccc(OCC(F)(F)F)c(Nc2ncnc3cc(OC)cc(OC4CCOCC4)c23)c1 [Example 61, N-methyl-3-{[7-(methyloxy)-5-(tetrahydro-2H-pyran-4-yloxy)-4-quinazolinyl]amino}-4-[(2,2,2-trifluoroethyl)oxy] benzenesulfonamide]"
22,10 to 100 nM,"CNc1ccc2c(Nc3cc(S(=O)(=O)NC)ccc3N(C)C)ncnc2c1 [Example 88, 4-(dimethylamino)-N-methyl-3-((7-(methylamino)quinazolin-4-yl)amino) benzenesulfonamide]"
